Laboratory results reported in PMC13183915, “A platinum butterfly effect: small changes turn an anticancer drug into a non-toxic metalloantibiotic with in vivo efficacy” (npj Antimicrobials and Resistance, 2026).
Where two headings read alike, the source gives them in different places.

Columns and labels:
MRSA NRS 100 = test: Broth microdilution MIC, MRSA NRS 100; assay type: cell-based, S. aureus; details: MRSA NRS 100
Experimental: The data is given in supporting information (Table S5). Before starting the experiment, a single colony was picked from MHA plate, inoculated in MHBII and incubated overnight at 37 °C with shaking for 18–24 h to get the starter culture. Antibiotic susceptibility testing was conducted according to the CLSI (Clinical & Laboratory Standards Institute) guidelines using the broth microdilution assay. 10 mg/mL stock solutions of test compounds were prepared in DMSO. Bacterial cultures were inoculated in MHBII and optical density (OD) was measured at 600 nm, followed by dilution to achieve ~10^6 CFU/mL. The compounds were tested from 64 to 0.5 mg/L in two-fold serial diluted fashion with 2.5 μL of each concentration added to well of a 96-well round bottom microtiter plate. Later, 97.5 μL of bacterial suspension was added to each well containing either test compound or appropriate controls. […] The MIC is defined as the lowest concentration of the compound at which there is absence of visible growth. For each test compound, MIC determinations were carried out independently three times using duplicate samples.

HEK293T cells = assay type: cell-based, Human
Experimental: The control for the experiments was DMSO. HEK293T cells were cultivated in DMEM high glucose supplemented with 10% heat-inactivated fetal bovine serum, 100 U/mL of penicillin and streptomycin and maintained at a temperature of 37 °C with 5% CO2. Initially, 4000/well of cells were seeded into 96-well plates and incubated for 24 h before being exposed to compounds at concentrations ranging from 0.78, 50, and 100 µM. After 24 h of incubation, the compounds were added and serially diluted and incubated for 24 and 48 h at 37 °C 5% CO2, the cells were stained with alamar Blue, and the fluorescence excitation/ emission 540 nm/590 nm was measured using 96 well-plate reader. CC50 is defined as the lowest concentration of compound which leads to a 50% reduction in cell viability compared to untreated and DMSO control. Each experiment was repeated in triplicate.

B. subtilis 168CA [1] = test: MIC against B. subtilis 168CA (mode of action conditions); assay type: cell-based, Bacillus subtilis; details: 16 h
Experimental: To establish a starting concentration for the OSC assay, MICs against parent strain 168CA were determined under conditions equivalent to those used for mode of action assays. MICs were determined according to the Clinical Laboratory Standardization Institute (CLSI) in a serial microdilution assay. […] Cultures were incubated for 16 h at 37 °C under constant agitation. MICs were used as basis for OSC determination. To this end, growth curves were recorded using optical density (OD) measurements. Culture volumes of 20 mL were grown until reaching an OD600 of 0.3. […] An untreated culture served as control. Growth was followed until cultures reached the stationary phase. A concentration achieving 50–70% growth inhibition in exponential phase was selected as optimal stressor concentration.

[2] = system: MreB (B. subtilis MW10, Pxyl-gfp-mreB); test: MreB mobility (cell wall synthesis reporter); assay type: cell-based, Bacillus subtilis; details: 3.12 µM Pt1, 25 µM Pt8; 30 and 60 min
Experimental: (§1) B. subtilis strains were grown in LB containing appropriate inducer concentrations as specified in Table S10. After reaching an OD600 of 0.3, cultures were split and treated with antibiotics. Samples were withdrawn after 30 and 60 min of treatment, spotted on glass slides covered with 1% agarose films, and immediately imaged.
Figure S7: Fluorescence overlays of B. subtilis MW10 (Pxyl-gfp-mreB). Cultures were treated […]
overlays of two consecutive images captured from the same cells in a 30-second interval.
Images were false-colored in blue and orange with overlapping signal appearing white. Distinct blue and orange spots indicate movement of MreB foci. Entirely white images indicate a stop of MreB moility (vancomycin control). Scale bar 2 µm.
(§2) (1 picture or pasted object on this page, not shown here)

[3] = system: FtsZ (B. subtilis 2020, Pxyl-gfp-ftsZ); test: Localization of FtsZ (cell division reporter); assay type: cell-based, Bacillus subtilis; details: 3.12 µM Pt1, 25 µM Pt8; 30 and 60 min
Experimental: as §1
Figure S8: Localization of FtsZ in B. subtilis 2020 (Pxyl-gfp-ftsZ). Cultures were treated with
as §2

B. subtilis 168CA [4] = test: ROS scavenger assay (modified MIC assay); assay type: cell-based, Bacillus subtilis
Experimental: LB media were prepared to contain either 10 mM tiron, 150 mM thiourea, 10 mM tiron and 150 mM thiourea, or no […]. Serial two-fold dilutions of the different antibiotics were prepared in the respective media and transferred to 96-well plates. […] The OD600 was meassured in a BMG Clariostar Plus plate reader.

S. aureus ATCC 29213 = test: Murine superficial skin infection model; assay type: in vivo; details: topical 2% cream, twice daily for 4 days, Swiss mice
Experimental: The in vivo efficacy of Pt1 was determined in a superficial skin infection model. Briefly, male Swiss mice, 4–6 weeks old, weighing ∼22–25 g, were used throughout the study. Mice were caged alone in an individually vented cage (IVC) to check cross-contamination and to maintain aseptic conditions throughout the experiment. Ketamine and xylazine were prepared in distilled water, 40 mg/kg and 8 mg/kg of body weight, respectively, and injected intraperitoneally (IP) as a mixture of 100 μL in each mouse for anaesthesia. Then, we proceeded with the removal of fur by applying depilatory cream. The area was cleaned with sterile distilled water. Approximately 2 cm^2 of skin area was scratched until it became visibly reddened and glistening without any bleeding. For bacterial infection, a 10 μL droplet containing 10^7 CFU/mL of S. aureus ATCC 29213 was applied to the reddened area of skin. To confirm the infection, post 4 h, untreated mice were sacrificed, skin homogenized, and various dilutions of the treatment groups (6 mice per group) were plated on TSA plates. […] Henceforth, the drug regimen was comprised of twice daily application (in the morning and the evening, with an 8 h interval) for 4 days. Control mice were regularly treated with 25–30 mg each of 2% fusidic acid (LEO Pharma, Ballerup, Denmark), 2% infuzide, and base (vehicle). […]

`C1=C\CC/C=C\CC/1.[Cl][Pt][Cl]` [Pt1] showed an MIC (MRSA NRS 100) of 0.67 to 1.34 µM, an IC50 (HEK293T cells; 24 h) of 74.1 ± 4.1 µM and an IC50 (HEK293T cells; 48 h) of 65.3 ± 2.7 µM. For the same molecule, the MIC (B. subtilis 168CA [1]) was 6.25 µM, the MreB mobility [2] was “neither Pt1 nor Pt8 affected MreB mobility” and the “localization of FtsZ” value [3] was “remained unaffected”. The “MIC fold change (increase) with scavenger” value (B. subtilis 168CA [4]; medium containing 150 mM thiourea (hydroxyl radical scavenger)) was “tenfold”, the “MIC fold change (increase) with scavengers” value (B. subtilis 168CA [4]; medium containing both tiron and thiourea) was 13 fold and the “reduction in bacterial load compared to vehicle-treated group” value (S. aureus ATCC 29213) was ~ 1.9 log10 CFU/g.
